IC50 data for 22 compounds are collected here from patent US8148391B2 (Cephalon, Inc., priority 2006, dated 2012).

Read-outs that look alike come from different tables or passages of the source.

Assay [1] concerns the target T1, baculovirus-expressed ALK (Homo sapiens, UniProt Q9UM73).
T1 construct: host or cells: baculovirus expression system
Briefly: ALK Kinase Assay (ELISA-type, time-resolved fluorescence). In kind it is biochemical. The method in brief:
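Plates coated with phospholipase C-γ substrate (10 μg/mL in TBS); reaction started with 30 ng/ml ALK and run 15 min at 37° C. Phosphorylated substrate detected with Eu-N1-labeled PT66 antibody. IC50 from sigmoidal variable-slope fit of percent inhibition vs log concentration.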
For orientation: In an ELISA, binding on a coated surface is turned into a signal by an enzyme label.

Assay [2] deals with T2, c-Met (cytoplasmic domain) (Homo sapiens, UniProt P08581).
T2 construct: 10 ng/mL c-Met (cytoplasmic domain, Invitrogen Corporation #PV3143); purchased Invitrogen Corporation PV3143
Briefly: c-Met Kinase Assay (same methods as for ALK, with modifications). In kind it is biochemical. The method in brief: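 Europium-labeled PT66 antibody (Eu-N1) detects substrate phosphorylation on wells coated with phospholipase C-γ at 10 μg/mL. The kinase, the cytoplasmic domain of c-Met at 10 ng/mL, starts the reaction, which proceeds 15 minutes at 37° C.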

Setting [3] is: 1 μM ATP (Km level), 30 ng/ml ALK, 37° C., 15 minutes, read-out: ALK Activity (ALK kinase inhibition, IC50 class).
[4] abbreviates: 1 μM ATP (Km level), 10 ng/mL c-Met, read-out: cMet Activity (c-Met kinase inhibition, IC50 class).
[5] abbreviates: 1 μM ATP (Km level), read-out: ALK Activity (ALK Kinase Inhibition, IC50).
The mark [6] stands for this setting: 1 μM ATP (Km level), read-out: cMet Activity (c-Met Kinase Inhibition, IC50).
[7] abbreviates: ALK kinase inhibition, 1 μM ATP, read-out: ALK Activity.
[8] abbreviates: c-Met kinase inhibition, 1 μM ATP, read-out: cMet Activity.
Where [9] appears, read: ALK kinase inhibition, 1 μM ATP (Km level), read-out: ALK Activity.
Setting [10] is: c-Met kinase inhibition, 1 μM ATP (Km level), read-out: cMet Activity.

T2 sequence (P08581 956-1390 limits assumed): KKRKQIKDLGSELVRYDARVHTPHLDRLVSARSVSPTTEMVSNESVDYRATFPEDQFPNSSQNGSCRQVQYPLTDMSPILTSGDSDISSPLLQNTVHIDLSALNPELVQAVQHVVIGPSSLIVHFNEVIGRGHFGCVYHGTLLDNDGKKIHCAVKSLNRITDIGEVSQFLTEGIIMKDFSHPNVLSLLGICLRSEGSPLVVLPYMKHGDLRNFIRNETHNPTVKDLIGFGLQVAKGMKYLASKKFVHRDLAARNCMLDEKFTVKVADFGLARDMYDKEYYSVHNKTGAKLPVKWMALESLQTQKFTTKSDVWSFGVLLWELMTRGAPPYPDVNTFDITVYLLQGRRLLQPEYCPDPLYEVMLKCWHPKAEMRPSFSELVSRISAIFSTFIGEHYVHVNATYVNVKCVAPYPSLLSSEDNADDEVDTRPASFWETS
T1 sequence (Q9UM73 19-1620): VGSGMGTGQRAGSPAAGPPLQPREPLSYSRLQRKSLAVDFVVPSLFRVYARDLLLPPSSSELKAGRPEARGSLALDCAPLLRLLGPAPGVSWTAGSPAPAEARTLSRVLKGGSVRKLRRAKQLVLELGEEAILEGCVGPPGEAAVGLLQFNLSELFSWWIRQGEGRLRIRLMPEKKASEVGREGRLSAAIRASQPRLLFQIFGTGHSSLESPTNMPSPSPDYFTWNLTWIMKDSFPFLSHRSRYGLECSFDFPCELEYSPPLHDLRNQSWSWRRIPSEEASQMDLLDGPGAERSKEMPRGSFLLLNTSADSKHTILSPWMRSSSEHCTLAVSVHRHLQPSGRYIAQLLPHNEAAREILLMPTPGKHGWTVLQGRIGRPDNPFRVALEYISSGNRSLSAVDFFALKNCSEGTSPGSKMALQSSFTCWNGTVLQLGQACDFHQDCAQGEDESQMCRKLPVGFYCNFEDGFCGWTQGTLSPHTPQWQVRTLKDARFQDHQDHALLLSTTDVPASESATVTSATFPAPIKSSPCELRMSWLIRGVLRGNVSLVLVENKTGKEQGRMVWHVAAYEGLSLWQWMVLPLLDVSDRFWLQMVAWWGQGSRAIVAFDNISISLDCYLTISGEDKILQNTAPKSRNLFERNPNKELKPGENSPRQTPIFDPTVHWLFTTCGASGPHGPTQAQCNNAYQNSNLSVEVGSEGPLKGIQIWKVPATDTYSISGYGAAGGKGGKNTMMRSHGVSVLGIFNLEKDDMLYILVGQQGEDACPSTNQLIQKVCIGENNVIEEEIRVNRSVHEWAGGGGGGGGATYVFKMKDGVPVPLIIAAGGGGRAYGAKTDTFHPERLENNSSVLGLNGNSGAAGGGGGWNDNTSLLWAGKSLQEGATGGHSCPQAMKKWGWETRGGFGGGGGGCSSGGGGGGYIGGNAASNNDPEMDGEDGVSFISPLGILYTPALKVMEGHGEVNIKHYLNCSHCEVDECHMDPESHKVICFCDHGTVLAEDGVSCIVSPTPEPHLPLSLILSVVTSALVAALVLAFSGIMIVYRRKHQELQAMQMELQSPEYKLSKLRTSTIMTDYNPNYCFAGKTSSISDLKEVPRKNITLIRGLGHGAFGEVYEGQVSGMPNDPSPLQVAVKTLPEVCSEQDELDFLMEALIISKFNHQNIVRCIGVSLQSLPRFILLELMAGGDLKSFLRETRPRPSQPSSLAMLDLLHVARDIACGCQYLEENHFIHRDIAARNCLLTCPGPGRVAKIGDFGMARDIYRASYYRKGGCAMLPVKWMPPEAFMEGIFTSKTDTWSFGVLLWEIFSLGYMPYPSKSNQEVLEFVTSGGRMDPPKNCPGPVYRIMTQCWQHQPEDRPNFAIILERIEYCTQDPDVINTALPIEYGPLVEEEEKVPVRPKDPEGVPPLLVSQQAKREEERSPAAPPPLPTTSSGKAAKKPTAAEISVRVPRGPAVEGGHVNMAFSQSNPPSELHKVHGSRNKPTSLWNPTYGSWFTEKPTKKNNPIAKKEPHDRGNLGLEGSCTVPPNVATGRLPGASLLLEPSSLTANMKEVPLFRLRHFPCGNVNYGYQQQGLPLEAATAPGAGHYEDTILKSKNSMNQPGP

In the case of “3-{5-Chloro-2-[3-(2-methoxy-ethyl)-2,3,4,5-tetrahydro-1H-benzo[d]azepin-7-ylamino]-pyrimidin-4-ylamino}-4-methyl-thiophene-2-carboxylic acid methylamide [Example 1363]”, the IC50 in assay [1] (setting [3]) and in assay [2] (setting [4]) was < 100 nM in each case.
In the case of `CNC(=O)c1cc(-c2ccc(C#N)cc2)cc(F)c1Nc1nc(Nc2ccc3c(c2)NC(=O)CCC3)ncc1Cl` [Example 1420, 4-[5-Chloro-2-(2-oxo-2,3,4,5-tetrahydro-1H-benzo[b]azepin-8-ylamino)-pyrimidin-4-ylamino]-4′-cyano-5-fluoro-biphenyl-3-carboxylic acid methyl amide], the values for the IC50 in assay [1] (setting [3]) and in assay [2] (setting [4]) were < 100 nM and 100 to 1000 nM, respectively.
Consider `CC1(C)CCCOc2c(Nc3ncc(Cl)c(N[C@@H]4CCCC[C@H]4NS(C)(=O)=O)n3)cccc21` [Example 875, N-{(1R,2R)-2-[5-Chloro-2-(5,5-dimethyl-2,3,4,5-tetrahydro-benzo[b]oxepin-9-ylamino)-pyrimidin-4-ylamino]-cyclohexyl}-methanesulfonamide], for which the results for the IC50 in assay [1] (setting [5]) and in assay [2] (setting [6]) were < 100 nM and > 10000 nM, respectively.
As to `CCNC(=O)c1cccc(F)c1Nc1nc(Nc2ccc3c(c2)CCN(CC(=O)NC)CC3)ncc1Cl` [Example 1372, 2-[5-Chloro-2-(3-methylcarbamoylmethyl-2,3,4,5-tetrahydro-1H-benzo[d]azepin-7-ylamino)-pyrimidin-4-ylamino]-N-ethyl-3-fluoro-benzamide], the IC50 in assay [1] (setting [3]) and in assay [2] (setting [4]) was < 100 nM throughout.
Regarding `CNC(=O)c1cccc(F)c1Nc1nc(Nc2ccc3c(c2)NC(=O)C(N2CCOCC2)CC3)ncc1Cl` (centres unmarked) [Example 1491, 2-[5-Chloro-2-(3-morpholin-4-yl-2-oxo-2,3,4,5-tetrahydro-1H-benzo[b]azepin-8-ylamino)-pyrimidin-4-ylamino]-3-fluoro-N-methyl-benzamide], the IC50 in assay [1] (setting [7]) and in assay [2] (setting [8]) was < 100 nM in each case.
With `COc1cc2c(cc1Nc1ncc(Cl)c(N[C@H]3[C@@H](C(N)=O)[C@@H]4C=C[C@H]3C4)n1)CCN(CC(C)(F)F)CC2` [Example 782, (1S,2S,3R,4R)-3-{5-Chloro-2-[3-(2,2-difluoro-propyl)-8-methoxy-2,3,4,5-tetrahydro-1H-benzo[d]azepin-7-ylamino]-pyrimidin-4-ylamino}-bicyclo[2.2.1]hept-5-ene-2-carboxylic acid amide], the IC50 in assay [1] (setting [5]) is < 100 nM; in assay [2] (setting [6]), > 10000 nM.
Regarding `COc1cc2c(cc1Nc1ncc(Cl)c(Nc3ccc(N4CCOCC4)c(C)c3)n1)CCN(CC(=O)N(C)C)CC2` [Example 796, 2-{7-[5-Chloro-4-(3-methyl-4-morpholin-4-yl-phenylamino)-pyrimidin-2-ylamino]-8-methoxy-1,2,4,5-tetrahydro-benzo[d]azepin-3-yl}-N,N-dimethyl-acetamide], the values for the IC50 in assay [1] (setting [5]) and in assay [2] (setting [6]) were < 100 nM and > 10000 nM, respectively.
On to `COc1cc(N(C)C)ccc1Nc1nc(Nc2ccc3c(c2)C(C)(C)CCC(=O)N3C)ncc1Cl` [Example 1342, 7-[5-Chloro-4-(4-dimethylamino-2-methoxy-phenylamino)-pyrimidin-2-ylamino]-1,5,5-trimethyl-1,3,4,5-tetrahydro-benzo[b]azepin-2-one], for which the IC50 was < 100 nM in assay [1] (setting [3]) and 1000 to 10000 nM in assay [2] (setting [4]).
For the compound `COc1cc2c(cc1Nc1ncc(Cl)c(N[C@@H]3CCCC[C@H]3NS(C)(=O)=O)n1)CCOC(=O)N2C` [Example 1503, N-{(1R,2R)-2-[5-Chloro-2-(3-methoxy-5-methyl-6-oxo-5,6,8,9-tetrahydro-7-oxa-5-aza-benzocyclohepten-2-ylamino)-pyrimidin-4-ylamino]-cyclohexyl}-methanesulfonamide], the IC50 was < 100 nM in assay [1] (setting [7]) and > 10000 nM in assay [2] (setting [8]).
For `CC(C)N1C(=O)CCC(C)(C)c2ccc(Nc3ncc(Cl)c(N[C@H]4[C@@H](C(N)=O)[C@@H]5C=C[C@H]4C5)n3)cc21` [Example 1590, (1S,2S,3R,4R)-3-[5-Chloro-2-(1-isopropyl-5,5-dimethyl-2-oxo-2,3,4,5-tetrahydro-1H-benzo[b]azepin-8-ylamino)-pyrimidin-4-ylamino]-bicyclo[2.2.1]hept-5-ene-2-carboxylic acid amide], in that order: < 100 nM and 1000 to 10000 nM.
For `CN1Cc2cc(Nc3ncc(Cl)c(Nc4cccc5c4OC(F)(F)O5)n3)ccc2CCC1=O` [Example 1803, 8-[5-Chloro-4-(2,2-difluoro-benzo[1,3]dioxol-4-ylamino)-pyrimidin-2-ylamino]-2-methyl-1,2,4,5-tetrahydro-benzo[c]azepin-3-one], in that order: < 100 nM and 100 to 1000 nM.
For `C#CCNC(=O)c1cccc(F)c1Nc1nc(Nc2ccc3c(c2)N(CC)CCCC3(C)C)ncc1Cl` [Example 1633, 2-[5-Chloro-2-(1-ethyl-5,5-dimethyl-2,3,4,5-tetrahydro-1H-benzo[b]azepin-8-ylamino)-pyrimidin-4-ylamino]-3-fluoro-N-prop-2-ynyl-benzamide], in that order: 100 to 1000 nM and 100 to 1000 nM.
In the case of `COCCN1CCc2ccc(Nc3ncc(Cl)c(NC(C)CNS(C)(=O)=O)n3)cc2CC1` (centres unmarked) [Example 303, N-(2-{5-Chloro-2-[3-(2-methoxy-ethyl)-2,3,4,5-tetrahydro-1H-benzo[d]azepin-7-ylamino]-pyrimidin-4-ylamino}-propyl)-methanesulfonamide], the IC50 is 100 to 1000 nM in assay [1] (setting [9]) and 1000 to 10000 nM in assay [2] (setting [10]).
Consider `COCCNC1CCc2cc(Nc3ncc(Cl)c(Nc4ccccc4S(=O)(=O)N4CCCC4)n3)c(OC)cc2CC1` (centres unmarked) [Example 1081, 5-Chloro-N*2*-[3-methoxy-7-(2-methoxy-ethylamino)-6,7,8,9-tetrahydro-5H-benzocyclohepten-2-yl]-N*4*-[2-(pyrrolidine-1-sulfonyl)-phenyl]-pyrimidine-2,4-diamine], for which the IC50 was < 100 nM in assay [1] (setting [3]) and 1000 to 10000 nM in assay [2] (setting [4]).
In the case of `CC(C)NC(=O)c1ccccc1Nc1nc(Nc2ccc3c(c2)C(C)(C)CCC(=O)N3)ncc1Cl` [Example 340], the figures for the IC50 in assay [1] (setting [9]) and in assay [2] (setting [10]) were < 100 nM and 100 to 1000 nM, respectively.
With `CC1(C)CCC(=O)Nc2ccc(Nc3ncc(Cl)c(Nc4ccccc4-c4ncccc4C(F)(F)F)n3)cc21` [Example 991, 7-{5-Chloro-4-[2-(3-trifluoromethyl-pyridin-2-yl)-phenylamino]-pyrimidin-2-ylamino}-5,5-dimethyl-1,3,4,5-tetrahydro-benzo[b]azepin-2-one], the IC50 in assay [1] (setting [5]) is 100 to 1000 nM; in assay [2] (setting [6]) it was > 10000 nM.
For `COCCN1CCc2cc(Nc3ncc(Cl)c(Nc4ccc(OC)cc4-n4cccn4)n3)c(OC)cc2CC1` [Example 612, 5-Chloro-N*2*-[8-methoxy-3-(2-methoxy-ethyl)-2,3,4,5-tetrahydro-1H-benzo[d]azepin-7-yl]-N*4*-(4-methoxy-2-pyrazol-1-yl-phenyl)-pyrimidine-2,4-diamine], in that order: < 100 nM and > 10000 nM.
`COCCN1CCc2cc(Nc3ncc(Cl)c(NC4C5C=CC(C5)C4C(=O)NC(C)C)n3)c(OC)cc2CC1` (stereo not drawn) [Example 605, (2-exo-3-exo)-3-{5-Chloro-2-[8-methoxy-3-(2-methoxy-ethyl)-2,3,4,5-tetrahydro-1H-benzo[d]azepin-7-ylamino]-pyrimidin-4-ylamino}-bicyclo[2.2.1]hept-5-ene-2-carboxylic acid isopropylamide]: the figures for the IC50 in assay [1] (setting [5]) and in assay [2] (setting [6]) were < 100 nM and > 10000 nM, respectively.
On to `CNC(=O)c1ccccc1Nc1nc(Nc2ccc3c(c2)COC[C@@H]2CCCN32)ncc1Cl` [Example 12, 2-{5-Chloro-2-[(S)-(2,3,3a,4-tetrahydro-1H,6H-5-oxa-10b-aza-benzo[e]azulen-8-yl)amino]-pyrimidin-4-ylamino}-N-methyl-benzamide], for which the IC50 in assay [1] (setting [9]) and in assay [2] (setting [10]) was < 100 nM in each case.
`CNC(=O)c1ccccc1Nc1nc(Nc2ccc3c(c2)NCCN(C)C3=O)ncc1Cl` [Example 412, 2-[5-Chloro-2-(4-methyl-5-oxo-2,3,4,5-tetrahydro-1H-benzo[e][1,4]diazepin-8-ylamino)-pyrimidin-4-ylamino]-N-methylbenzamide]: the IC50 in assay [1] (setting [9]) and in assay [2] (setting [10]) was < 100 nM in each case.
As for `CNC(=O)c1ccccc1Nc1nc(Nc2ccc3c(c2)C2CN(S(C)(=O)=O)CC3O2)ncc1Cl` (centres unmarked) [Example 64, 2-[5-Chloro-2-(10-methanesulfonyl-12-oxa-10-aza-tricyclo[6.3.1.0*2,7*]dodeca-2(7),3,5-trien-4-ylamino)-pyrimidin-4-ylamino]-N-methyl-benzamide], the IC50 in assay [1] (setting [9]) is 100 to 1000 nM; in assay [2] (setting [10]), < 100 nM.
Take `COCCOc1ccc(Nc2nc(Nc3cc4c(cc3OC)CCN(Cc3nccn3C)CC4)ncc2Cl)c(OC)c1` [Example 1175, 5-Chloro-N*4*-[2-methoxy-4-(2-methoxy-ethoxy)-phenyl]-N*2*-[8-methoxy-3-(1-methyl-1H-imidazol-2-ylmethyl)-2,3,4,5-tetrahydro-1H-benzo[d]azepin-7-yl]-pyrimidine-2,4-diamine]: the IC50 is < 100 nM in assay [1] (setting [3]) and > 10000 nM in assay [2] (setting [4]).
